The text below walks through data of patent US3987180A, “1-Propyl-imidazolyl antimycotic compositions and methods of treating mycoses” (Bayer Aktiengesellschaft, priority 1973, dated 1976).

Test [1] deals with Trichophyton mentagrophytes. Description: Antimycotic activity in vitro (series dilution test), Trichophyton mentagrophytes. The test is classed as cell-based. Conditions: nutrient medium, 28° C, 24 to 96 hours, read-out: Minimum inhibitory concentration (MIC), Trichophyton mentagrophytes.
In test [2] the test system is Penicillium commune. Description: Antimycotic activity in vitro (series dilution test), Penicillium commune. It is filed as cell-based. Conditions: nutrient medium, 28° C, 24 to 96 hours, read-out: Minimum inhibitory concentration (MIC), Penicillium commune.
Test [3] has as its system Candida albicans. As to the kind of experiment: Antimycotic activity in vitro (series dilution test), Candida albicans. Conditions: nutrient medium, 28° C, 24 to 96 hours, read-out: Minimum inhibitory concentration (MIC), Candida albicans. The test is classed as cell-based.
Test [4] has as its system Trichophyton quinckeanum. As to the kind of experiment: Oral administration against Quinckeanum trichophytosis in white mice. The test is classed as in vivo. Conditions: 100 mg/kg orally twice daily up to the eighth day of the infection. The procedure: b. Oral administration against Quinckeanum trichophytosis in white mice By using doses of 100 mg/kg of body weight, administered orally twice daily up to the eighth day of the infection, it was possible to suppress the development of the Quinckeanum infection in mice.

Test [5] deals with Trichophyton mentagrophytes. Description: Topical application against trichophytosis in guinea pigs. It is filed as in vivo. Conditions: 1% strength solution applied locally for 11 to 14 days. An excerpt:
a. Topical application against trichophytosis in guinea pigs.
A 1% strength solution of the active compounds in a dimethylsulphoxide/glycerol/water mixture (1:3:6) or in polyethylene glycol 400 was applied locally for 11 to 14 days after the trichophytosis (pathogen: Trichophyton mentagrophytes) had been produced experimentally.

In test [6] the test system is Aspergillus niger. Description: Antimycotic activity in vitro (series dilution test), Aspergillus niger. The test is classed as cell-based. Conditions: nutrient medium, 28° C, 24 to 96 hours, read-out: Minimum inhibitory concentration (MIC), Aspergillus niger.

SMILES strings stand for the structures. ≈ marks a conversion by molar mass, not a printed value.

`CC(C)(C)C(O)C(Cn1ccnc1)Oc1ccc(F)cc1` (stereo not shown) [Example 6]: the MIC in test [1] is 64 µg/mL (≈ 219 µM); in test [2], > 64 µg/mL; in test [3], 64 µg/mL (≈ 219 µM).
Regarding `CC(C)(C)C(C)(O)C(Cn1ccnc1)Oc1ccc(Cl)cc1` (stereo not shown) [Example 9], the MIC in test [1] was 8 µg/mL (≈ 24.8 µM); in test [2], > 64 µg/mL; in test [3] it was 64 µg/mL (≈ 198 µM). Also, the “Action against Trichophyton quinckeanum” value in test [4] is “xx (fewer than 30% of the animals showed symptoms of the infection.)”. Moreover, the “Action (topical, trichophytosis in guinea pigs)” value in test [5] was “xx (healing of the infection inside 4-6 days after infection.)”.
For the molecule `CC(C)(C)C(O)C(Cn1ccnc1)Oc1cccc(Cl)c1` (stereo not shown) [Example 4], the MIC in test [1] was > 64 µg/mL; in test [2], > 64 µg/mL; in test [3], 64 µg/mL (≈ 207 µM).
As to `CC(C)(C)C(O)C(Cn1ccnc1)Oc1ccc(Cl)cc1` (stereo not shown) [Example 1, 1-(imidazol-1-yl)-2-(4-chlorophenoxy)-3-hydroxy-4,4-dimethyl-pentane], the MIC in test [1] was 32 µg/mL (≈ 104 µM); in test [2], > 64 µg/mL; in test [3] it was 64 µg/mL (≈ 207 µM).
On to `CC(C)(C)C(O)C(Cn1ccnc1)Oc1ccc(Cl)cc1Cl` (stereo not shown) [Example 5], for which the MIC in test [1] was 4 µg/mL (≈ 11.7 µM); in test [2] it was > 64 µg/mL; in test [3] it was 64 µg/mL (≈ 186 µM); in test [6], 64 µg/mL (≈ 186 µM).
As for `CC(C)(C)C(O)C(Cn1ccnc1)Oc1ccccc1Cl` (stereo not shown) [Example 3], the MIC in test [1] is 32 µg/mL (≈ 104 µM); in test [2] it was > 64 µg/mL; in test [3] it was 64 µg/mL (≈ 207 µM).
With `CC(C)(C)C(O)C(Cn1ccnc1)Oc1ccccc1` (stereo not shown) [Example 8], the MIC in test [1] is 32 µg/mL (≈ 117 µM); in test [2], > 64 µg/mL; in test [3] it was 64 µg/mL (≈ 233 µM).
For the molecule `Cc1cc(Cl)ccc1OC(Cn1ccnc1)C(O)C(C)(C)C` (stereo not shown) [Example 7], the MIC in test [1] is 4 µg/mL (≈ 12.4 µM); in test [2], > 64 µg/mL; in test [3], 64 µg/mL (≈ 198 µM); in test [6], > 64 µg/mL. Moreover, the “Action against Trichophyton quinckeanum” value in test [4] is recorded as “xx (fewer than 30% of the animals showed symptoms of the infection.)”. Also, the “Action (topical, trichophytosis in guinea pigs)” value in test [5] is on record as “xx (healing of the infection inside 4-6 days after infection.)”.
For `CC(C)(C)C(O)(Cc1ccccc1)C(Cn1ccnc1)Oc1ccc(Cl)cc1` (stereo not shown) [Example 2, 1-(imidazol-1-yl)-2-(4-chlorophenoxy)-3-benzyl-3-hydroxy-4,4-dimethyl-pentane], the MIC in test [1] was < 1 µg/mL; in test [2], > 64 µg/mL; in test [3], 64 µg/mL (≈ 160 µM); in test [6] it was > 64 µg/mL.
